How the values were obtained:
[1] = biological target: T1, Insulin (recombinant human insulin) (Homo sapiens, UniProt P01308); test: pH stability test of IM16 dendrimer-insulin complexes; assay type: physicochemical; details: 0.5 U insulin; pH 5, 6, 7.4, 9, 10; 15 minutes
T1 construct: Despite having its molecular weight (5825 g/mol) and establishing an average of 4 (−) charges; purchased Novo Nordisk Actrapid (trade name; no catalogue number given)
Experimental: The test on the behaviour of the dendrimer-drug complexes previously formed on varying the medium's pH was again performed by evaluating the delay in polyacrylamide gel of the dendrimer bound to the drug with respect to free dendrimer, following a process similar to that used in the tests to determine the dendrimer-drug bond, although introducing a stage of variation of pH in the complex formation process of prior to electrophoresis, process that was performed in the following way: • Complex formation: It was performed in a final mixture volume of 30 μl, which is the maximum volume for loading in the gel. To do this, we started from the necessary quantity of dendrimer which provides a band perfectly identifiable by staining with silver nitrate in the gel once the electrophoresis has been performed: 20 μl of a 100 μM solution, which correspond to 1.2×10^15 molecules. […] An incubation was performed of the dendrimer and drug mixtures at 37° C. during 1 hour to give time for a more thermodynamically stable complex to form, although more time may be needed for its formation. For each pH to test, 2 mixtures were incubated. […]

[2] = test system: ODN TAR; test: Stability of the NN-ODN dendriplex in complete medium with 10% foetal calf serum; details: TAR+NN 2/1, complete medium with 10% FCS
Experimental: With the intention of seeing the stability of the dendriplexes in the presence of serum over time, a test was performed wherein to the samples was added complete medium which contained 10% foetal calf serum (FCS). The following samples were prepared with TAR as ODN:
As indicated, 20′ after its preparation 100 μl of complete medium were added to samples 1, 2 and 3. From each one of the samples 45 μl aliquots were taken after 40 minutes, 4 hours and 17 hours and they were subjected to electrophoresis in agarose gel. The samples were loaded in the gel following the ordering of its numbering from left to right, having previously situated a 100 bp ladder marker. In the last point (17 hours), only the 2/1 ratio complex was tested against ODN without NN. The results are shown in FIG. 7, wherein there appears a date on each one of the wells corresponding to samples with TAR+NN in 2/1 ratio.

[3] = test system: U87-MG cells; test: Toxicity in U-87-MG cells: tests with MTT
Experimental: A test with U-87-MG cells was performed, wherein the effect of the dendrimers on the viability of said lines was studied at different times. To do this, 15000 (24 hour incubations), 7000 (3 day incubations) or 1500 (7 day incubations) cells per well were plated in 96-well plates. The cells were incubated with different concentrations (1 μM, 5 μM and 10 μM) either NN dendrimer or NN16 dendrimer, during 24 hours, 3 days and 7 days. […] Two different positive controls were also used: cells treated with 7% DMSO and cells treated with 1% Triton X-100.
In the case of Superfect, three doses were tested, the optimum dose recommended by the manufacturer (2.5 μl), a lower dose (1.25 μl) and another higher dose (5 μl). With regard to Polyfect, specifically designed for adherent cells, the three doses tested were: optimum dose (0.6 μl), lower dose (0.3 μl) and higher dose (1.2 μl).
After each corresponding incubation time, a test was performed with MTT analogous to that described in Example 38. At the absorbance value obtained in the untreated cells (C−) it was given the value of 1 and the moiety of the absorbencies produced was used to refer to it.

[4] = test system: U87-MG cells; test: Transfection of U87-MG cells mediated by dendrimers (flow cytometry); assay type: cell-based; details: dendriplex with anti-rev oligonucleotide 250 nM, − charge/+ charge ratio 1:8, 24 hours
Experimental: 100000 cells/well were plated of the corresponding cell line in a 24-well plate with 500 μl of medium.
Dendriplexes were formed with dendrimers NN and NN16 and the fluorescent anti-rev antisense oligonucleotide in a total volume of 75 μl of medium without serum, wherein the anti-rev oligonucleotide was mixed at a concentration 250 nM and the corresponding dendrimer in different proportions, so that different − charge/+ charge ratios were obtained: 1:1, 1:2, 1:4 and 1:8. The mixture was incubated during half an hour at ambient temperature and then it was added to the corresponding well to incubate the cells with dendriplexes.
After 24 hours of incubation, the cells were removed from the well, they were washed twice with PBS, they were incubated for 1 minute with acid glycine to remove the possible moieties of dendriplexes which may have remained adhered on the cell membrane, and a final wash was performed with PBS. Finally, the cells were resuspended in 500 μl of PBS and the quantity of fluorescent oligonucleotide inside the cell was quantified by flow cytometry.

T1 sequence (P01308 25-54 limits assumed): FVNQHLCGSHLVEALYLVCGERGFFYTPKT
T1 sequence (P01308 90-110 limits assumed): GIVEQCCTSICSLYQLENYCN

SMILES | pH stability of dendrimer-insulin complex [1] | time after which the NN dendrimer releases the ODN [2] | viability (MTT), untreated cells (C−) = 1 [3] | percentage of cells transfected [4]
C[N+](C)(C)CCO[Si](C)(CCC[Si](C)(CCC[Si](CCC[Si](C)(CCC[Si](C)(OCC[N+](C)(C)C)OCC[N+](C)(C)C)CCC[Si](C)(OCC[N+](C)(C)C)OCC[N+](C)(C)C)(CCC[Si](C)(CCC[Si](C)(OCC[N+](C)(C)C)OCC[N+](C)(C)C)CCC[Si](C)(OCC[N+](C)(C)C)OCC[N+](C)(C)C)CCC[Si](C)(CCC[Si](C)(OCC[N+](C)(C)C)OCC[N+](C)(C)C)CCC[Si](C)(OCC[N+](C)(C)C)OCC[N+](C)(C)C)CCC[Si](C)(OCC[N+](C)(C)C)OCC[N+](C)(C)C)OCC[N+](C)(C)C.[I-].[I-].[I-].[I-].[I-].[I-].[I-].[I-].[I-].[I-].[I-].[I-].[I-].[I-].[I-].[I-] [IM16, 2G-[Si(OCH2CH2NMe3^+I^−)2]8] | dissociated at acid pH | – | – | –
CN(CCO[Si](C)(C)CCC[Si](C)(CCC[Si](CCC[Si](C)(CCC[Si](C)(C)OCCN(C)CC[N+](C)(C)C)CCC[Si](C)(C)OCCN(C)CC[N+](C)(C)C)(CCC[Si](C)(CCC[Si](C)(C)OCCN(C)CC[N+](C)(C)C)CCC[Si](C)(C)OCCN(C)CC[N+](C)(C)C)CCC[Si](C)(CCC[Si](C)(C)OCCN(C)CC[N+](C)(C)C)CCC[Si](C)(C)OCCN(C)CC[N+](C)(C)C)CCC[Si](C)(C)OCCN(C)CC[N+](C)(C)C)CC[N+](C)(C)C.[I-].[I-].[I-].[I-].[I-].[I-].[I-].[I-] [NN, 2G-[Si(O(CH2)2N(Me)(CH2)2NMe3^+I^−)]8] | – | 17 h | 0.6-0.75 | 95%

— patent publication US8603493B2, “Carbosilane dendrimers, preparation method thereof and use of same” (Dendrico, S.L., priority 2005, dated 2013)
